The values that follow come from patent US4505924A, “Pharmaceutical preparation for the topical treatment of acne” (Richardson-Vicks Ltd., priority 1982, dated 1985).

Molecules are shown by their SMILES. Read-outs that look alike come from different tables or passages of the source.

The subject of assay [1] is P. acnes. The assay is described as follows: Zone diffusion test using 1% artificial sebum in agar (resistance to inactivation by sebum). It is filed as cell-based. To be noted: for zone of inhibition at 10 µg/disc / zone of inhibition at 100 µg/disc: Cutibacterium acnes; for zone of inhibition at 10 µg/disc: 10 μg; for zone of inhibition at 100 µg/disc: 100 μg.
The subject of a further assay is lipase. The assay is described as follows: Direct inhibition of P. acnes lipase activity. It counts as biochemical, Propionibacterium acnes. As to the method: (§1) Imazalil and Hexamidine have been studied for anti-enzymic properties against the production and activity of the exoenzymes of Propionibacterium acnes.
There was a 29% reduction of lipase activity in the presence of 10 μg/ml Imazalil and a 68% reduction with 100 μg/ml Imazalil.
(i) A leval of 1 μg/ml Hexamidine reduced lipase activity by 33%.
(i) 100 μg/ml Imazalil and 1 ug/ml Hexamidine reduced lipase activity by 55%.

For another assay, the system named is S. epidermidis. The assay is described as follows: Zone diffusion test. It is filed as cell-based. As to the method:
(§2) A zone diffusion test was carried out on the three emulsions. The results were as follows:
(§3) The ranking order for activity against P. acnes was the same as the GMS emulsions.

Assay [2] deals with P. acnes. The assay is described as follows: Zone diffusion test. It counts as cell-based. As for the experimental part:
as §2, §3

Assay [3] in a line: Zone diffusion test for synergistic activity. The note with it: single substance; for zone of inhibition at 10 µg/disc: 10 μg; for zone of inhibition at 100 µg/disc: 100 μg. It counts as cell-based. As for the experimental part:
Imazalil and Hexamidine were tested for synergistic activity using a zone diffusion test.

In another assay the test system is Pi. ovale. The assay is described as follows: Zone diffusion test. It is filed as cell-based. The note with it: Pityrosporum ovale, read-out: Zone of Imhibition, Pi. ovale.
The next assay relates to acid phosphatase. The assay is described as follows: Acid phosphatase production by P. acnes in continuous culture (chemostat). It counts as cell-based, Propionibacterium acnes. To be noted: growth in the presence of 10 μg/ml Imazalil.
Text: (§4) The enzymes are believed to play a role in the pathogenesis of acne. Imazalil is a direct lipase inhibitor and also reduces the production of hyaluronidase and acid phosphatase. Hexamidine likewise reduces the lipase activity.
as §1
(§5) (ii) Imazalil reduced the output of hyaluronidase and acid phosphatase by P.acnes.
(§6) Levels of hyaluronidase fell by 50% after growth in the presence of 10 μg/ml Imazalil.
(§7) (ii) Production of lipase, hyaluronidase and acid phosphatase was markedly affected by a mixture of 10 μg/ml Imazalil and 1 μg/ml Hexamidine. […] Hyaluronidase output was reduced by 50%. Acid phosphatase output was reduced by 80%.

A further assay deals with hyaluronidase. The assay is described as follows: Hyaluronidase production by P. acnes in continuous culture (chemostat). The note with it: growth in the presence of 10 μg/ml Imazalil. It counts as cell-based, Propionibacterium acnes.
Text: as §4, §1, §5, §6, §7

[4] abbreviates: 1% artificial sebum in agar, read-out: Zone of Inhibition, Sebum.
Where [5] appears, read: control agar, read-out: Zone of Inhibition, Control.

For `N=C(N)c1ccc(OCCCCCCOc2ccc(C(=N)N)cc2)cc1` [Hexamidine, 4,4-(hexamethylene (dihydroxy)-dibenzamidine-di-β-hydroxy ethanesulfonate], the “inhibitive effect of lipids (sebum) on activity” value in the assay with P. acnes [1] (1% artificial sebum in agar) was “totally resistant”. Moreover, the zone of inhibition at 10 µg/disc amounted to 11 mm with P. acnes [1] (setting [4]), 9 mm with P. acnes [1] (setting [5]) and 10 mm in assay [3]. The figures for the zone of inhibition at 100 µg/disc (in the assay with P. acnes [1] (setting [4]); with P. acnes [1] (setting [5]); in assay [3]) were 33 mm, 31.5 mm and 29.5 mm, respectively. Moreover, in the assay on lipase (1 μg/ml Hexamidine), the “reduction of lipase activity” value is listed as 33%. For the same compound, in the assay with S. epidermidis (20 μg), the “Zone of Imhibition, S. epidermidis” value is given as 13 mm. The zone of inhibition at 20 µg/disc in the assay with S. epidermidis (Staphylococcus epidermidis, 20 μg, read-out: Zone of Imhibition, S. epidermidis) came to 10 mm; in the assay on P. acnes [2] (Cutibacterium acnes, 20 μg, read-out: Zone of Imhibition, P. acnes), 17 mm. For the same compound, in the assay on P. acnes [2] (20 μg), the “Zone of Imhibition, P. acnes” value is 22.5 mm. Further, the zone of inhibition at 1 µg/disc in assay [3] (1 μg) stood at 3 mm.
In the case of `C=CCOC(Cn1ccnc1)c1ccc(Cl)cc1Cl` (stereo not drawn) [Imazalil, 1-[2-(2,4-dichlorophenyl)-2-(2-propenyloxy)ethyl]-1H-imidazole], the zone of inhibition at 10 µg/disc with Pi. ovale (10 μg) was determined as 11 mm; with P. acnes [1] (setting [4]) it was 0 mm; with P. acnes [1] (setting [5]), 0 mm; in the assay with S. epidermidis (Staphylococcus epidermidis, 10 μg, read-out: Zone of Imhibition, S. epidermidis) it was 3 mm; in the assay on P. acnes [2] (Cutibacterium acnes, 10 μg, read-out: Zone of Imhibition, P. acnes), 3 mm; in assay [3], 0 mm. In addition, the zone of inhibition at 80 µg/disc in the assay with Pi. ovale (80 μg) worked out at 28 mm; in the assay on S. epidermidis (Staphylococcus epidermidis, 80 μg, read-out: Zone of Imhibition, S. epidermidis), 7.5 mm; in the assay on P. acnes [2] (Cutibacterium acnes, 80 μg, read-out: Zone of Imhibition, P. acnes), 22 mm. Besides, the “Production of acid phosphatase” value in the assay with acid phosphatase is on record as “totally inhibited”. The “inhibitive effect of lipids (sebum) on activity” value in the assay with P. acnes [1] (1% artificial sebum in agar) is recorded as “partially inhibited”. The zone of inhibition at 100 µg/disc in the assay on P. acnes [1] (setting [4]) is 1.5 mm; in the assay on P. acnes [1] (setting [5]), 5 mm; in assay [3], 5.5 mm. For the same compound, the “fall of hyaluronidase levels” value in the assay on hyaluronidase turned out to be 50%. Also, the results for the “reduction of lipase activity” value in the assay on lipase (10 μg/ml Imazalil) and in the assay on lipase (100 μg/ml Imazalil) were 29% and 68%, respectively.
